Test results: publication PMC12040169 (PLOS Biology, 2025)

Assay: in vitro
Conditions: human, hela cells, % viability

| SMILES | viability at 28.5 h, 10 µM [%] |
| --- | --- |
| O=C(O)c1cn(CCN2C(=O)c3ccccc3C2=O)nn1 [CBK286543] | 91 |
| COc1nnc(-c2ccc(N3CCOCC3)c(NC(=O)COc3ccc(C)cc3)c2)c2ccccc12 [CBK266103] | 97.6 |
| O=C(Nc1ccccc1-c1nc2ccccc2[nH]1)c1ccc2c(c1)OCCO2 [CBK293924] | 104 |
| Cc1nnc2sc(-c3cccc4ccccc34)nn12 [CBK269185] | 39.8 |
| COCc1cc(C)nc2c1C(=O)NC(c1ccccc1C(=O)O)N2Cc1ccccc1 (stereo not drawn) [CBK286599] | 92.3 |
| CC(NC(=O)CS(=O)(=O)Cc1ccc(C#N)cc1)c1ccc(C#N)cc1 (stereo not drawn) [CBK297791] | 91.1 |
| C=C(C)Cn1c(-c2ccccc2C)nnc1S(=O)(=O)CC(C)C [CBK200074] | 80 |
| COc1ccc([N+](=O)[O-])cc1NC(=O)c1cc(Cl)c(OC)c(Cl)c1 [CBK268594] | 82.6 |
| O=C(c1ccc(Br)o1)N1CCc2ccc(S(=O)(=O)N3CCOCC3)cc21 [CBK028953] | 100 |
| CC(C)(CO)CNc1nc(-c2cc(C(F)(F)F)cc(C(F)(F)F)c2)cnc1N [CBK063490] | 101 |
| O=Cc1ccc(-c2nccnc2NS(=O)(=O)c2ccccc2)cc1 [CBK073845] | 97.3 |
| c1ccc(CCNc2cc(-c3ccsc3)ncn2)nc1 [CBK036963] | 93.9 |
| Cc1c(C(=O)O)sc(S(=O)(=O)N2CCN(C(=O)CCc3cccs3)CC2)c1C(=O)O [CBK297135] | 105 |
| O=C(O)c1cc(C=Cc2ccc(OC(F)F)cc2)nc2ccccc12 [CBK297532] | 85.3 |
| COc1ccc2c(c1OC)C(=O)N1c3ccccc3COC21 (stereo not drawn) [CBK109960] | 103 |
| Cc1nc(C)n(CC2CCCN(Cc3nc4ccccc4o3)C2)n1 (stereo not drawn) [CBK305828] | 95.3 |
| OCCCNC(c1ccccc1)c1ccc(O)cc1 (stereo not drawn) [CBK266329] | 97.2 |
| Cc1noc(C)c1S(=O)(=O)NCc1ccc(C(F)(F)F)c(F)c1 [CBK062112] | 94.2 |
| COCC1CCN(C(=O)Nc2ccc(F)c(N3CCCNC3=O)c2)C1 (stereo not drawn) [CBK305487] | 100 |
| Cc1cc(S(=O)(=O)N(CCC#N)Cc2ccccc2)c(C)cc1Cl [CBK043461] | 90.8 |

| SMILES | viability at 28.5 h, 10 µM [%] |
| --- | --- |
| Cc1c(Br)c([N+](=O)[O-])nn1C(C)C(=O)Nc1sc2c(c1C(N)=O)CCCC2 (stereo not drawn) [CBK268914] | 88.1 |
| CN(C(=O)C1CCN(C(=S)NCc2ccccc2)CC1)C(c1ccccc1)c1ccccn1 (stereo not drawn) [CBK060476] | 91.7 |
| CCCNc1cc(C)nc2cc(-c3ccc(OC)c(OC)c3)nn12 [CBK287805] | 88.2 |
| CC(C(=O)c1ccc(-c2ccccc2F)cc1)N1CCN(c2ccc(C#N)cc2)CC1 (stereo not drawn) [CBK074706] | 92 |
| Cc1noc(CN2CCNC(=O)C2c2ccccc2C(F)(F)F)n1 (stereo not drawn) [CBK306405] | 98.2 |
| CS(=O)(=O)N(CC(=O)NCc1ccccn1)Cc1ccc(Cl)cc1 [CBK267982] | 94.6 |
| N#Cc1ccc(CN2C(=O)c3ccccc3C2=O)cc1 [CBK029022] | 100 |
| COC(=O)c1ccc(-c2cn3ccnc3c(NCc3ccncc3)n2)cc1 [CBK066734] | 88.2 |
| CCOC(=O)c1[nH]c2ccccc2c1NC(=O)c1ccc(Br)cc1Cl [CBK160147] | 91.3 |
| COc1ccc(/C(N)=N/OC(=O)C(C)Oc2ccc(C(C)(C)C)cc2)cc1OC (stereo not drawn) [CBK267378] | 94.9 |
| CN(C(=O)CN1CCN(c2cc(-c3ccsc3)ncn2)CC1)c1ccccc1 [CBK091129] | 99.7 |
| Cc1ccc2nc(C)cc(C(=O)NNC(=O)Nc3ccc([N+](=O)[O-])cc3)c2c1 [CBK266890] | 98.8 |
| O=S(=O)(Nc1cccc(Cl)c1Cl)c1ccc(Cl)c(Cl)c1 [CBK017446] | 79.2 |
| Cc1ccc(C)c2[nH]c(=O)c(CN(CCN3CCOCC3)Cc3nnnn3C3CCCCC3)cc12 [CBK108116] | 85.3 |
| COc1ccc(C(CNC(=O)C2C(C(=O)O)C2(C)C)N(C)C)cc1 (stereo not drawn) [CBK286700] | 110 |
| O=C(O)CCC(=O)N1CCN(c2ncccn2)CC1 [CBK057422] | 114 |
| CC1=CC(C)(C)N(CC(=O)c2ccc([N+](=O)[O-])cc2)c2c(C)cccc21 [CBK261652] | 103 |
| COC(=O)CCCC(=O)n1ccn(CCc2cccs2)c1=O [CBK106612] | 92 |
| Cc1nc(SCC(=O)NCC2CCCOC2)oc1C (stereo not drawn) [CBK282195] | 94.6 |
| CS(=O)(=O)N(CC(=O)Nc1ccccc1F)c1ccc(I)cc1 [CBK265265] | 97.4 |

| SMILES | viability at 28.5 h, 10 µM [%] |
| --- | --- |
| CCOC(=O)N1CCN(C(=O)c2ccc(CS(=O)(=O)c3ccc(C)cc3)cc2)CC1 [CBK268659] | 88.3 |
| CN(C)c1ccnc2sc(C(N)=O)c(N)c12 [CBK061708] | 94 |
| O=c1ccc(-c2ccc(F)cc2)nn1CC1CCNCC1 [CBK284216] | 86.5 |
| CC(NC(=O)/C(=C\c1ccc(Cl)cc1)NC(=O)c1ccco1)C(=O)O (stereo not drawn) [CBK263617] | 93 |
| O=C(c1cccc(Br)c1)N1CCN(S(=O)(=O)N2CCOCC2)CC1 [CBK267470] | 93.2 |
| CC(C)(CN(Cc1ccccc1)C(=O)/C=C/c1ccccc1)NC(=O)OC(C)(C)C [CBK003266] | 91.2 |
| CC(=O)N1C[C@H]2CCCN(S(=O)(=O)c3cccs3)[C@H]2C1 [CBK285275] | 84.3 |
| O=C(CCNS(=O)(=O)c1ccccc1)OCc1ccc([N+](=O)[O-])cc1 [CBK296659] | 94.4 |
| O=C1CCc2cc(S(=O)(=O)Nc3ccccc3Cc3ccccc3)ccc2N1 [CBK286369] | 87 |
| O=C(Cn1c(-c2cccs2)cc2cccnc21)N1CCCCC1 [CBK282619] | 98.1 |
| O=C(Nc1ccc(Cl)cc1)N1CCN(CCCCc2ccc(F)cc2)CC1 [CBK017951C] | 111 |
| COc1ccc(C(NC(=O)CC2CCN(c3nc(C)cc(C)n3)CC2)C2CC2)cc1 (stereo not drawn) [CBK285994] | 93.4 |
| COCCNc1cc(-c2ccc(NC(C)=O)cc2)ncn1 [CBK090799] | 97.8 |
| CCn1cc(C(=O)N2CCC(C(=O)O)CC2)c(=O)c2cc3c(cc21)OCO3 [CBK286713] | 111 |
| O=C(O)c1ccc(Cl)c(-c2ccc(/C=N/Nc3ccc([N+](=O)[O-])cc3)o2)c1 [CBK078331] | 97.8 |
| CN1C(=O)COc2ccccc2C/C=C/C[C@@H]2[C@H]1CCCN2C(=O)Cn1ccc(=O)[nH]c1=O [CBK292093] | 102 |
| NC(=O)N/N=C/c1cc(Br)cs1 [CBK026434] | 81.8 |
| CCNc1nccnc1-c1ccccc1Cl [CBK037313] | 79.9 |
| O=C(COc1ccc2ccccc2c1Br)Nc1ccc(S(=O)(=O)N2CCCC2)cc1 [CBK264135] | 99.3 |

Same assay, conditions: human, hela cells, % viability, bulk resorufin, single well

| SMILES | viability at 28.5 h, 10 µM [%] |
| --- | --- |
| O=C(Cn1c(=O)oc2cc(Cl)ccc21)N1CCC2(CC1)OCCO2 [CBK304652] | 97 |
| CCCN(CCc1cccnc1)C1Cc2cc(OC)c(OC)cc2C1 [CBK023935C] | 88.1 |
| CS(=O)(=O)c1ccc(-c2ccc3c(c2)COC2(CCN(C(=O)Cc4cccc(C(F)(F)F)c4)CC2)O3)cn1 [CBK160595] | 114 |
| CSc1cc(C)c2c(c1)COC1(CCN(C(=O)Nc3cccs3)CC1)O2 [CBK060795] | 90.6 |
